# Where “and” joins values, the source holds several entries; their conditions need not be identical. Equal values may be shown once. Inconclusive results and toxic doses are left out.
# Test system: BDF1 mice, P388 leukemia ip, median survival T/C
# Assay: NCI In Vivo Anticancer Drug Screen. Data for tumor model P388 Leukemia (intraperitoneal) in B6D2F1 (BDF1) mice
# Settings: endpoint: median survival time, higher = longer survival
# Protocol: The antitumor activity of compounds was measured in mice bearing transplantable tumors. Survival or tumor size were measured and the results are expressed as the measurement made in the treated group (T) divided by the measurement made in the vehicle treated control group (C). The tumor model used in this assay is P388 Leukemia (intraperitoneal) in B6D2F1 (BDF1) mice
# [1] = dose: 50.0 mg/kg/injection, schedule: Q01DX009 (ip), vehicle: saline with Tween-80
# [2] = dose: 100.0 mg/kg/injection, schedule: Q01DX009 (ip), vehicle: saline with Tween-80
# [3] = dose: 200.0 mg/kg/injection, schedule: Q01DX009 (ip), vehicle: saline with Tween-80
# [4] = dose: 50.0 mg/kg/injection, schedule: Q01DX009 (ip), vehicle: saline
# [5] = dose: 50.0 mg/kg/injection, schedule: Q04DX003 (ip), vehicle: saline
# [6] = dose: 100.0 mg/kg/injection, schedule: Q01DX009 (ip), vehicle: saline
# [7] = dose: 100.0 mg/kg/injection, schedule: Q04DX003 (ip), vehicle: saline
# [8] = dose: 200.0 mg/kg/injection, schedule: Q01DX009 (ip), vehicle: saline
# [9] = dose: 200.0 mg/kg/injection, schedule: Q04DX003 (ip), vehicle: saline
# [10] = dose: 100.0 mg/kg/injection, schedule: Q04DX003 (ip), vehicle: saline with Tween-80
# [11] = dose: 200.0 mg/kg/injection, schedule: Q04DX003 (ip), vehicle: saline with Tween-80
structure (smiles),measurement,setting,value
CC(C)(C)C(=O)/C=C/c1ccccc1,T/C,[1],94 % of control
same,T/C,[2],90 % of control
same,T/C,[3],105 % of control
CCN(CC)c1ccc2cc3ccc(=[N+](CC)CC)cc-3oc2c1,T/C,"dose: 2.5 mg/kg/injection, schedule: Q01DX009 (ip), vehicle: saline",120 % of control
same,T/C,"dose: 7.5 mg/kg/injection, schedule: Q01DX009 (ip), vehicle: saline sonified",120 % of control
same,T/C,"dose: 10.0 mg/kg/injection, schedule: Q04DX003 (ip), vehicle: saline",104 % of control
CN(C)c1ccc(/C=C\c2cc(/C=C/c3ccc(N(C)C)cc3)nc3ccccc23)cc1,T/C,[1],103 % of control
same,T/C,[2],116 % of control
same,T/C,[3],120 % of control
COc1ccc(N2C(=O)CC(Sc3ccccc3N)C2=O)cc1 (stereo not drawn),T/C,"dose: 50.0 mg/kg/injection, schedule: Q01DX001 (ip), vehicle: Klucel (hydroxypropylcellulose) (HPC)",100 % of control
same,T/C,"dose: 100.0 mg/kg/injection, schedule: Q01DX001 (ip), vehicle: Klucel (hydroxypropylcellulose) (HPC)",104 % of control
c1ccc(-c2cscc2-c2ccccc2)cc1,T/C,"dose: 25.0 mg/kg/injection, schedule: Q04DX003 (ip), vehicle: saline",97 % of control
same,T/C,[4],93 % of control
same,T/C,[5],108 % of control
same,T/C,[6],93 % of control
same,T/C,[7],100 % of control
same,T/C,[8],101 % of control
same,T/C,"dose: 400.0 mg/kg/injection, schedule: Q01DX009 (ip), vehicle: saline",93 % of control
same,T/C,"dose: 400.0 mg/kg/injection, schedule: Q04DX003 (ip), vehicle: saline",100 % of control
O=C(Nc1ccc(Cl)cc1)O/N=C/c1ccccn1,T/C,"dose: 100.0 mg/kg/injection, schedule: Q01DX001 (ip), vehicle: saline with Tween-80",95 % of control
same,T/C,"dose: 200.0 mg/kg/injection, schedule: Q01DX001 (ip), vehicle: saline with Tween-80",104 % of control
same,T/C,"dose: 400.0 mg/kg/injection, schedule: Q01DX001 (ip), vehicle: saline with Tween-80",90 % of control
CCc1nn2c(=O)nc(Oc3ccccc3)nc2s1,T/C,[1],101 % of control
same,T/C,[2],106 % of control
same,T/C,[3],98 % of control
CCNC(C)(C)C(Cl)c1cccs1 (stereo not drawn),T/C,"dose: 0.78 mg/kg/injection, schedule: Q01DX009 (ip), vehicle: saline",101 % of control
same,T/C,"dose: 1.56 mg/kg/injection, schedule: Q01DX009 (ip), vehicle: saline",110 % of control
same,T/C,"dose: 3.12 mg/kg/injection, schedule: Q01DX009 (ip), vehicle: saline",90 % of control
same,T/C,"dose: 6.25 mg/kg/injection, schedule: Q01DX009 (ip), vehicle: saline",92 % of control and 106 % of control
same,T/C,"dose: 25.0 mg/kg/injection, schedule: Q01DX009 (ip), vehicle: saline",87 % of control
same,T/C,[4],87 % of control and 112 % of control
same,T/C,[5],100 % of control
same,T/C,[6],114 % of control
same,T/C,[7],118 % of control
same,T/C,[9],86 % of control
Cc1c(C(=O)O)cc2n(c1=O)Cc1cc3ccccc3nc1-2,T/C,[4],95 % of control
same,T/C,[5],92 % of control
same,T/C,[6],113 % of control
same,T/C,[7],100 % of control
same,T/C,[8],100 % of control
same,T/C,[9],96 % of control
CCN(C(=O)c1ccc(C(=O)N(CC)c2ccccc2)cc1)c1ccccc1,T/C,[10],100 % of control
same,T/C,[11],91 % of control
CCCCc1ccc2nc(NC(=O)OC)[nH]c2c1,T/C,"dose: 100.0 mg/kg/injection, schedule: Q04DX003 (ip), vehicle: other",174 % of control
same,T/C,[10],169 % of control
same,T/C,"dose: 200.0 mg/kg/injection, schedule: Q04DX003 (ip), vehicle: Klucel (hydroxypropylcellulose) (HPC)",160 % of control
same,T/C,"dose: 200.0 mg/kg/injection, schedule: Q04DX003 (ip), vehicle: other",93 % of control
same,T/C,[11],96 % of control

# — PubChem BioAssay AID328 (DTP/NCI, 2004)
